Data: ChEMBL document CHEMBL1134372, “Bisphosphonates inhibit the growth of Trypanosoma brucei, Trypanosoma cruzi, Leishmania donovani, Toxoplasma gondii, and Plasmodium falciparum: a potential route to chemotherapy” (J Med Chem, 2001)

How the values were obtained:
Trypanosoma cruzi [1] = assay: Effect on proliferation of Trypanosoma cruzi Amastigotes in vero cells at a conc of 150 uM was determined; format: functional
Leishmania donovani [2] = assay: Inhibition of L. donovani (Amastigotes) strain MHOM/ET/67/L82 maintained in female golden hamsters; format: functional, organism-based
Toxoplasma gondii = assay: Inhibition of Toxoplasma gondii tachyzoites in human foreskin fibroblast monolayer(DMEM with 10%fetal calf serum); format: functional, organism-based
Trypanosoma cruzi [3] = assay: Inhibition of Trypanosoma cruzi Amastigotes was determined in γ-irradiated L6E9 myoblasts culture and fetal calf serum
Vero [4] = assay: Percent infected vero cells was determined; format: functional
Plasmodium falciparum = assay: Inhibition of Plasmodium falciparum 3D7 in erythrocytes; format: functional, organism-based
Trypanosoma brucei [5] = assay: Inhibition of Trypanosoma rhodesiense (strain STIB900) was determined using blood stream from trypomastigotes; format: functional, organism-based
Leishmania donovani [6] = assay: Inhibition of L. donovani (Amastigotes) strain MHOM/ET/67/L82 maintained in pathogen free spleen from female golden hamsters; toxic; format: functional, organism-based
Vero [7] = assay: Percent infected Vero cells was determined; format: functional
Leishmania donovani [8] = assay: Inhibition of L. donovani (Amastigotes) strain MHOM/ET/67/L82 maintained in pathogen free spleen from female golden hamsters; format: functional, organism-based
Trypanosoma cruzi [9] = assay: Inhibition of Trypanosoma cruzi Amastigotes was determined in γ-irradiated L6E9 myoblasts culture and fetal calf serum; remark: listed apart in the source
Trypanosoma cruzi [10] = assay: microbe, parasite or virus in culture
Description: Compound was evaluated for anti-parasitic activity against Trypanosoma cruzi

Trypanosoma brucei [11] = assay: Compound was evaluated for anti-parasitic activity against Trypanosoma brucei; format: functional, organism-based
Trypanosoma cruzi [12] = assay: Effect on inhibition on proliferation of Trypanosoma cruzi Amastigotes in vero cells at a conc of 150 uM; format: functional

| IC50 (Leishmania donovani [2]) | IC50 (Trypanosoma cruzi [3]) | IC50 (Plasmodium falciparum) | IC50 (Trypanosoma brucei [5]) | SMILES | IC50 (Toxoplasma gondii; read-out: IC50) | other results |
| --- | --- | --- | --- | --- | --- | --- |
| > 200 µM | > 200 µM | > 200 µM | 1.7 µM | O=P(O)(O)C(O)(CCc1cccnc1)P(=O)(O)O | > 200 µM | inhibition at 150 µM (Trypanosoma cruzi [1]): 81%; Infected (Vero [4]): 6% |
| 129 µM | > 200 µM | > 200 µM | > 200 µM | NCCCCC(O)(P(=O)(O)O)P(=O)(O)O | > 200 µM |  |
| > 200 µM | > 200 µM | 5.1 µM | 62.4 µM | CCCCCC(O)(P(=O)(O)O)P(=O)(O)O |  |  |
|  | 35 µM | > 200 µM | 8.6 µM | O=P(O)(O)C(O)(Cc1c[nH]cn1)P(=O)(O)O |  | IC50 (Leishmania donovani [6]): Toxic |
| 82.1 µM | > 200 µM | > 200 µM | 27.9 µM | CCOP(=O)(OCC)C(Nc1ncccc1C)P(=O)(OCC)OCC |  | inhibition at 150 µM (Trypanosoma cruzi [1]): 69%; Infected (Vero [7]): 9% |
| > 200 µM | > 200 µM | > 200 µM | 40 µM | Nc1ccc(CC(O)(P(=O)(O)O)P(=O)(O)O)cc1 | 68.2 µM |  |
|  | 105 µM | > 200 µM | 0.22 µM | O=P(O)(O)C(O)(Cc1ccccn1)P(=O)(O)O | 9.1 µM | IC50 (Leishmania donovani [6]): Toxic |
|  | 147 µM | > 200 µM | 0.7 µM | Cc1cccnc1NC(P(=O)(O)O)P(=O)(O)O |  | IC50 (Leishmania donovani [6]): Toxic |
| > 200 µM | > 200 µM | 158 µM | 19.8 µM | O=P(O)(O)C(O)(CSc1ccncc1)P(=O)(O)O |  | inhibition at 150 µM (Trypanosoma cruzi [1]): 0%; Infected (Vero [7]): 33% |
| > 200 µM |  | > 200 µM | > 200 µM | O=P(O)(O)C(O)(Cc1ccncc1)P(=O)(O)O | > 200 µM | IC50 (Trypanosoma cruzi [9]): > 200 µM |
| > 200 µM | > 200 µM | 7.7 µM | 21.3 µM | O=P(O)(O)C(O)(Cc1ccccc1)P(=O)(O)O |  | inhibition at 150 µM (Trypanosoma cruzi [1]): 6%; Infected (Vero [7]): 30% |
| 82.5 µM | 25 µM | > 200 µM | > 200 µM | NCCCC(O)(P(=O)(O)O)P(=O)(O)O [ALENDRONIC ACID] |  |  |
|  |  |  |  | O=C(Cn1ccnc1[N+](=O)[O-])NCc1ccccc1 [BENZNIDAZOLE] |  | IC50 (Trypanosoma cruzi [10]): 3.5 µM |
| > 200 µM | > 200 µM | > 200 µM | 31.7 µM | NCCCCCC(O)(P(=O)(O)O)P(=O)(O)O [NERIDRONIC ACID] |  |  |
| > 200 µM | > 200 µM | > 200 µM | 5.4 µM | CN(C)CCC(O)(P(=O)(O)O)P(=O)(O)O [OLPADRONIC ACID] |  |  |
|  | 60 µM | > 200 µM | 177 µM | NCCC(O)(P(=O)(O)O)P(=O)(O)O [PAMIDRONIC ACID] | 35.6 µM | IC50 (Leishmania donovani [6]): Toxic |
|  |  |  |  | N=C(N)c1ccc(OCCCCCOc2ccc(C(=N)N)cc2)cc1 [PENTAMIDINE] |  | IC50 (Trypanosoma brucei [11]): 0.035 µM |
| 2.3 µM | 123 µM | 123 µM | 8.6 µM | O=P(O)(O)C(O)(Cc1cccnc1)P(=O)(O)O [RISEDRONIC ACID] | 0.49 µM | inhibition at 150 µM (Trypanosoma cruzi [12]): 100%; Infected (Vero [4]): 0% |

| SMILES | IC50 (Leishmania donovani [2]) | IC50 (Trypanosoma cruzi [3]) | IC50 (Plasmodium falciparum) | IC50 (Trypanosoma brucei [5]) | IC50 (Toxoplasma gondii; read-out: IC50) | other results |
| --- | --- | --- | --- | --- | --- | --- |
| CCCCC(O)(P(=O)(O)O)P(=O)(O)O | > 200 µM | > 200 µM | 56.7 µM | 99.8 µM |  |  |
| CCCC(O)(P(=O)(O)O)P(=O)(O)O | > 200 µM | > 200 µM | 130 µM | 92 µM |  | IC50 (Toxoplasma gondii): 9.1 µM |
| CC(N)CC(O)(P(=O)(O)O)P(=O)(O)O (stereo unspecified) |  | > 200 µM | > 200 µM | 7.8 µM |  | IC50 (Leishmania donovani [8]): > 200 µM |
